≈ marks a conversion by molar mass, not a printed value. Calls of active or inactive are those of the source. No cut-off for these calls is given here.
What was measured:
HCT-116 [1] = test: Antiproliferative activity against human HCT-116 cells assessed as inhibition of cell proliferation incubated for 72 hrs by CCK8 assay; format: functional, cell-based; conditions: HCT-116, 72 h
MDA-MB-231 = test: Antiproliferative activity against human MDA-MB-231 cells assessed as inhibition of cell proliferation incubated for 72 hrs by CCK8 assay; format: functional, cell-based; conditions: MDA-MB-231, 72 h
A549 = test: Antiproliferative activity against human A549 cells assessed as inhibition of cell proliferation incubated for 72 hrs by CCK8 assay; format: functional, cell-based; conditions: A549, 72 h
[2] = Solubility of the compound in double distilled water; format: physicochemical
[3] = molecular target: DNA topoisomerase 2-alpha (Homo sapiens) (UniProt P11388); test: Inhibition of TOP2 (unknown origin) assessed as formation of short DNA fragments using supercoiled plasmid DNA at 100 uM by ethidium bromide staining based gel
[4] = molecular target: T1, DNA topoisomerase 1 (Homo sapiens) (UniProt P11387); test: Inhibition of TOP1 (unknown origin) assessed as decrease in relaxation of supercoiled DNA using pBR322 plasmid DNA as substrate at 100 uM by ethidium bromide staining based gel electrophoresis
T1 sequence (whole entry): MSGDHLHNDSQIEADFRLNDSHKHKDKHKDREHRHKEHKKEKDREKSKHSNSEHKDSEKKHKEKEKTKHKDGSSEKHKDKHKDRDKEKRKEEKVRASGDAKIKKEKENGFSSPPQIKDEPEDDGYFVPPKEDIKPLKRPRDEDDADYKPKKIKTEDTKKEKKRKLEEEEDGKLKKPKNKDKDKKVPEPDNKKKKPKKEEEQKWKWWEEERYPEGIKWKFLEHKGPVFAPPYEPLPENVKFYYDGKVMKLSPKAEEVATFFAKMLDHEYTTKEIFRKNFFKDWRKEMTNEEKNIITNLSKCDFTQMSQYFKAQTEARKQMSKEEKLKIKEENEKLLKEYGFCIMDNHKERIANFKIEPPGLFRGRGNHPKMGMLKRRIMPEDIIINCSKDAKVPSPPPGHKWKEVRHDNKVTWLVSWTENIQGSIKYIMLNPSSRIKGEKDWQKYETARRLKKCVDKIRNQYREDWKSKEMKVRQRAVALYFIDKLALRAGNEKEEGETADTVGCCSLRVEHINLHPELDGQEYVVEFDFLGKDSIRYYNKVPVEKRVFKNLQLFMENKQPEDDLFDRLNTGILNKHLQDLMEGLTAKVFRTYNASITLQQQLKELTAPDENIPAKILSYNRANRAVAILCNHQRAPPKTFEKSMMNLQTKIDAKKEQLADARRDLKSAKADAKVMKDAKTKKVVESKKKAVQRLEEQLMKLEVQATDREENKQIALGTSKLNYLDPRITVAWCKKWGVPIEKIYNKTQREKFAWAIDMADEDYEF

HCT-116 [5] = test: Antitumor activity against human HCT-116 cells xenografted in BALB/c nude mouse assessed as inhibition of tumor growth at 150 mg/kg, po BID measured by caliper relative to control; format: functional; conditions: HCT-116, po, read-out: TGI
[6] = Half life in mouse liver microsomes; format: ADME, Microsome
HCT-116 [7] = test: Antitumor activity against human HCT-116 cells xenografted in BALB/c nude mouse assessed as inhibition of tumor growth at 60 mg/kg, po BID administered for 21 days measured by caliper relative to control; format: functional; conditions: HCT-116, po, 504 h, time 21 day, read-out: TGI
[8] = Toxicity in BALB/c nude mouse xenografted with human A549 cells assessed as morphological changes in kidney at 150 mg/kg, po bid by H&E staining based light microscopic analysis; format: organism-based; conditions: in vivo
[9] = Toxicity in BALB/c nude mouse xenografted with human A549 cells assessed as morphological changes in liver at 150 mg/kg, po bid by H&E staining based light microscopic analysis; format: organism-based; conditions: in vivo
HCT-116 [10] = test: Antitumor activity against human HCT-116 cells xenografted in BALB/c nude mouse assessed as necrosis at 150 mg/kg, po bid by H&E staining based light microscopic analysis; format: functional, organism-based
HCT-116 [11] = test: Antitumor activity against human HCT-116 cells xenografted in BALB/c nude nude mouse assessed as tumor growth inhibition at 16 mg/kg/day, ip QD administered for 16 consecutive days measured by caliper relative to control; format: functional; conditions: HCT-116, ip, 384 h, time 16 day, read-out: TGI
[12] = Toxicity in BALB/c nude nude mouse xenografted with human HCT-116 cells assessed as decrease in body weight at 0.5 mg/kg/day, ip QD administered for 16 consecutive days; format: organism-based; conditions: in vivo, 384 h, time 16 day
HCT-116 [13] = test: Antitumor activity against human HCT-116 cells xenografted in BALB/c nude mouse assessed as inhibition of tumor growth at 16 mg/kg, ip QD administered for 21 days measured by caliper; format: functional, organism-based; conditions: time 21.0 day
HCT-116 [14] = test: Antitumor activity against human HCT-116 cells xenografted in BALB/c nude mouse assessed as inhibition of tumor growth at 16 mg/kg/day, ip BID administered for 21 days measured by caliper; format: functional, organism-based; conditions: time 21.0 day

DNA topoisomerase 2-alpha (Homo sapiens), sequence (P11388 whole entry, the tested form may be a part): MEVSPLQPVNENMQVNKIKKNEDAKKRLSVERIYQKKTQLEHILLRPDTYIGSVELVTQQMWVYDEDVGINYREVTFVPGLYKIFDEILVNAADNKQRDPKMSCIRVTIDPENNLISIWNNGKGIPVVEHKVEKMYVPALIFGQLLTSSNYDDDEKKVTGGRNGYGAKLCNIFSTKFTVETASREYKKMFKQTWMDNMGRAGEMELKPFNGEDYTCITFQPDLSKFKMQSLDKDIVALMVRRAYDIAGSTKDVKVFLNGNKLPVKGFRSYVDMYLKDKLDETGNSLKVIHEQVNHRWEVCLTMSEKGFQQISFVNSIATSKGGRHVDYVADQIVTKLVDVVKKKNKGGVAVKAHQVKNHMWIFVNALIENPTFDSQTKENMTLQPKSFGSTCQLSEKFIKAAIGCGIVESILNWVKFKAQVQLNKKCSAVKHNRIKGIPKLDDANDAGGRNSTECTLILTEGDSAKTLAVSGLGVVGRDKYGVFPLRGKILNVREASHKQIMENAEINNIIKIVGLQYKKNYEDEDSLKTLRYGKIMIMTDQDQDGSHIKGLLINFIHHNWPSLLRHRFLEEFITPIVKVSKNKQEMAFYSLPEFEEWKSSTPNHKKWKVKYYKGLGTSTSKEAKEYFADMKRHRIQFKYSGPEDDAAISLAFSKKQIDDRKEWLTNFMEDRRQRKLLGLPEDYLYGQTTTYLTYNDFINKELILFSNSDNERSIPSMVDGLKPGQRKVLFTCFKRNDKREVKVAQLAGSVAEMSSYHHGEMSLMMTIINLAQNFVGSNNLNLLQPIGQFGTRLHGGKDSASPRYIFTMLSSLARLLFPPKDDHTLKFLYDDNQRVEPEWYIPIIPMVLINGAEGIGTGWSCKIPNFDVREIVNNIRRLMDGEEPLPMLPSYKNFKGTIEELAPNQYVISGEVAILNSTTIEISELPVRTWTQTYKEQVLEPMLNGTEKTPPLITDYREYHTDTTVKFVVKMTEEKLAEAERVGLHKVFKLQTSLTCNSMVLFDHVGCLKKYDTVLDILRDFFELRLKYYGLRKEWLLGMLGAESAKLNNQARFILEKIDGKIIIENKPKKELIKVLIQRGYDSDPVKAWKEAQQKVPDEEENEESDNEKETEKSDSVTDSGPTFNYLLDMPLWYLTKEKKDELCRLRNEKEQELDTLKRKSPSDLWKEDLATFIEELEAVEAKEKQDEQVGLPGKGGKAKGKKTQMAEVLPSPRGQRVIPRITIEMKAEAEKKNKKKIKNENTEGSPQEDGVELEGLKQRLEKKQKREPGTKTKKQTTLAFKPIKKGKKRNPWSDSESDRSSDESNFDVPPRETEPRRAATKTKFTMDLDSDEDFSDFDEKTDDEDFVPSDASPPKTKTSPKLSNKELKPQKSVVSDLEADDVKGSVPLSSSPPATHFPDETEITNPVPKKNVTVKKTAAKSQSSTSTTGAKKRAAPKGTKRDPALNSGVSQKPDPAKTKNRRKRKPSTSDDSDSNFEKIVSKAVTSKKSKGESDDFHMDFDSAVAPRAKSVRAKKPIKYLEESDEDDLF

Row | Compound | IC50 (HCT-116 [1]) [nM] | IC50 (MDA-MB-231) [nM] | IC50 (A549) [nM] | solubility [2] [µg/mL] | inhibition [3] | also measured
1 | CN1c2ccccc2C(=O)N2CCc3c([nH]c4ccc(NC(=O)C(N)CCC(N)=O)cc34)C21 (centres undefined) | 5800 | > 10000 | > 10000 | 14 (≈ 31.4 µM) | Active | 
2 | CSCCC(N)C(=O)Nc1ccc2[nH]c3c(c2c1)CCN1C(=O)c2ccccc2N(C)C31 (centres undefined) | 1600 | 810 | > 10000 | 15 (≈ 33.4 µM) | Active | 
3 | CC(C)[C@H](N)C(=O)Oc1ccc2[nH]c3c(c2c1)CCN1C(=O)c2ccccc2N(C)C31 (some centres undefined) | < 3 | 49 | > 10000 | 18 (≈ 43 µM) | Active | inhibition [4]: Active
4 | CN1c2ccccc2C(=O)N2CCc3c([nH]c4ccc(O)cc34)[C@H]21 | < 3 | 94 | 280 | 11 (≈ 34.4 µM) | Active | inhibition in vivo at 150 mg/kg (HCT-116 [5]): 57%; half-life [6]: 14.3 min; inhibition in vivo at 60 mg/kg (HCT-116 [7]): 24%; Activity [8]: Non-Toxic; Activity [9]: Non-Toxic; Activity (HCT-116 [10]): Active
5 | CN1c2ccccc2C(=O)N2CCc3c([nH]c4ccc(NC(=O)C(N)CO)cc34)C21 (centres undefined) | 1900 | 870 | 6300 | 20 (≈ 49.3 µM) | Active | 
6 | CN1c2ccccc2C(=O)N2CCc3c([nH]c4ccc(OC(=O)CCC(=O)OCCN5CCCCC5)cc34)C21 (centres undefined) | < 3 | 680 | 9220 | 18 (≈ 33.9 µM) | Active | 
7 | CN1c2ccccc2C(=O)N2CCc3c([nH]c4ccc(NC(=O)C5CCCN5)cc34)C21 (centres undefined) | > 10000 | > 10000 | > 10000 | 15 (≈ 36.1 µM) | Active | 
8 | CN1c2ccccc2C(=O)N2CCc3c([nH]c4ccc(NC(=O)C(N)Cc5c[nH]c6ccccc56)cc34)C21 (centres undefined) | 1700 | 520 | > 10000 | 12 (≈ 23.8 µM) | Active | 
9 | CN1c2ccccc2C(=O)N2CCc3c([nH]c4ccc(OC(=O)[C@@H]5CCCN5)cc34)C21 (some centres undefined) | 7 | 1150 | 430 | 30 (≈ 72 µM) | Active | inhibition in vivo at 16 mg/kg/day (HCT-116 [11]): 55%; Activity [12]: Toxic; Activity (HCT-116 [13]): inactive; inhibition in vivo at 150 mg/kg (HCT-116 [5]): 39%
10 | CN1c2ccccc2C(=O)N2CCc3c([nH]c4ccc(OC(=O)CCC(=O)OCCN5CCOCC5)cc34)C21 (centres undefined) | < 3 | 20 | > 10000 | 17 (≈ 31.9 µM) | Active | 
11 | CNCC(=O)Nc1ccc2[nH]c3c(c2c1)CCN1C(=O)c2ccccc2N(C)C31 (centres undefined) | 1400 | 1800 | > 10000 | 25 (≈ 64.2 µM) | Active | 
12 | CN1c2ccccc2C(=O)N2CCc3c([nH]c4ccc(OC(=O)[C@@H](N)CO)cc34)C21 (some centres undefined) | < 3 | 2340 | 2610 | 24 (≈ 59 µM) | Active | inhibition [4]: Active
13 | CN1c2ccccc2C(=O)N2CCc3c([nH]c4ccc(NC(=O)CCC(=O)O)cc34)C21 (centres undefined) | 1400 | 530 | > 10000 | 16 (≈ 38.2 µM) | Active | 
14 | CN1c2ccccc2C(=O)N2CCc3c([nH]c4ccc(OC(=O)[C@@H](N)COCc5ccccc5)cc34)C21 (some centres undefined) | 21 | > 10000 | > 10000 | 12 (≈ 24.2 µM) | Active | inhibition [4]: Active
15 | CC(O)C(N)C(=O)Nc1ccc2[nH]c3c(c2c1)CCN1C(=O)c2ccccc2N(C)C31 (centres undefined) | 1600 | > 10000 | > 10000 | 11 (≈ 26.2 µM) | Active | 
16 | CC(N)C(=O)Nc1ccc2[nH]c3c(c2c1)CCN1C(=O)c2ccccc2N(C)C31 (centres undefined) | 940 | 520 | 4900 | 28 (≈ 71.9 µM) | Active | 
17 | CN1c2ccccc2C(=O)N2CCc3c([nH]c4ccc(NS(C)(=O)=O)cc34)C21 (centres undefined) | 460 | 190 | 720 | 29 (≈ 73.1 µM) | Active | TGI (HCT-116 [14]): inactive
18 | CC(C)CC(N)C(=O)Nc1ccc2[nH]c3c(c2c1)CCN1C(=O)c2ccccc2N(C)C31 (centres undefined) | > 10000 | > 10000 | > 10000 | 14 (≈ 32.4 µM) | Active | 
19 | CN1c2ccccc2C(=O)N2CCc3c([nH]c4ccc(N)cc34)C21 (centres undefined) | 390 | 1800 | 4800 | 10 (≈ 31.4 µM) | Active | inhibition [4]: inactive; TGI (HCT-116 [14]): inactive
20 | CN1c2ccccc2C(=O)N2CCc3c([nH]c4ccc(NC(=O)C(N)Cc5ccccc5)cc34)C21 (centres undefined) | 4400 | > 10000 | > 10000 | 16 (≈ 34.4 µM) | Active | 
21 | CN1c2ccccc2C(=O)N2CCc3c([nH]c4ccc(NS(N)(=O)=O)cc34)C21 (centres undefined) | 1100 | 840 | 5000 | 23 (≈ 57.9 µM) | Active | 
22 | CN1c2ccccc2C(=O)N2CCc3c([nH]c4ccc(NC(=O)CN)cc34)C21 (centres undefined) | 1600 | 1200 | 3700 | 19 (≈ 50.6 µM) | Active | 
23 | CN1c2ccccc2C(=O)N2CCc3c([nH]c4ccc(NC(=O)C5CCC(=O)N5)cc34)C21 (centres undefined) | > 10000 | > 10000 | > 10000 | 11 (≈ 25.6 µM) | Active | 
24 | CN1c2ccccc2C(=O)N2CCc3c([nH]c4ccc(NC(=O)C(N)Cc5ccc(O)cc5)cc34)C21 (centres undefined) | 1260 | 550 | > 10000 | 12 (≈ 24.9 µM) | Active | 
25 | CN1c2ccccc2C(=O)N2CCc3c([nH]c4ccc(OC(=O)CCC(=O)O)cc34)C21 (centres undefined) | < 3 | 260 | 5490 | 15 (≈ 35.8 µM) | inactive | 
26 | CC[C@@]1(O)C(=O)OCc2c1cc1n(c2=O)Cc2cc3ccccc3nc2-1 [CAMPTOTHECIN] | 17 | 241 | 170 |  |  | 
27 | CN1c2ccccc2C(=O)N2CCc3c([nH]c4ccc(OS(N)(=O)=O)cc34)C21 (centres undefined) | 40 | 530 | 410 | 37 (≈ 92.9 µM) | Active | 

Source: ChEMBL document CHEMBL4837225, “Water-soluble derivatives of evodiamine: Discovery of evodiamine-10-phosphate as an orally active antitumor lead compound” (Eur J Med Chem, 2021)
